Measured values reported in patent US20230174584A1, “Antibiotic Compounds” (priority 2019, published 2023).
Converted amounts (≈) assume the structure as drawn.

Legend:
[1] = test system: S. aureus 880 (BR-VRSA), NR-49120; assay: MIC assay; assay type: cell-based, Staphylococcus aureus; conditions: S. aureus 880, NR-49120 VRSA
Procedure: (§1) The antibacterial activity of the compounds was tested against a panel of bacteria, including Gram-positive bacteria (S. aureus ATCC29213, S. aureus USA300, S. aureus LIM-2, NR-45881, S. aureus HIP13419, NR-46413, E. faecium E155, E. faecium E7314, E. faecium E980, E. faecalis E1246, E. faecalis E7406 and S. pneumonia 153). The antibacterial activity of the compounds was further tested against S. aureus NY-155, NR-46236, S. aureus HIP12864, NR-46074, S. aureus 880 (BR-VRSA), NR-49120, E. faecalis E1246, E. faecalis E7604, as well as some Gram-negative bacteria (Escherichia coli and Klebsiella pneumoniae). Minimum inhibitory concentrations (MICs) in μg/mL were performed according to the CLSI guidelines. From glycerol stocks, bacterial strains were cultured on blood agar plates and incubated at 37° C. for 18 h. A single colony was transferred to tryptic soy broth (TSB) with 0.002% polysorbate 80 (p80). For the Enterococcus, VISA and VRSA strains, the cultures were grown at 37° C. until the optical density of the suspension reached a level equivalent to the 0.5 McFarland standard. The bacterial suspensions were diluted in TSB with 0.002% p80 to reach a bacterial cell density of 10^6 CFU/mL. In case of the other (vancomycin-sensitive) S. aureus strains, the direct colony suspension method was used. For these strains, after transfer of the colonies to TSB with 0.002% p80, they were immediately diluted to 10^6 CFU/mL, instead of incubated prior to this dilution. In the case of S. pneumonia, direct colony suspension was used by immediately suspending multiple colonies from fresh blood agar plates in TSB+0.002% p80 to an OD600 of 0.5 and subsequent dilution to 10^6 CFU mL^−1 in TSB+0.002% p80+5% lysed horse blood. Antibiotic dilutions for this strains were also made in TSB+0.002% p80+5% lysed horse blood. Both agar and microplates containing S. pneumonia were incubated at 37° C. with 5% CO2 for 24 h with constant shaking (600 rpm). […] The cultures were grown to exponential phase (OD600=0.5) at 37° C. […] In polypropylene 96-well microtiter plates, test compounds were added in biological triplicates and serial diluted 2-fold by transfer and mixing from one well to the next to achieve a final volume of 50 μL per well. An equal volume of bacterial suspension (10^6 CFU mL^−1) was added to the wells. The plates were sealed with breathable membranes and incubated at 37° C. for 24 h with constant shaking (600 rpm). In polypropylene microtiter plates, 100 μL of the test compounds was added to the first row in biological triplicates, and 50 μL of media was added to the other wells. The compounds were subjected to serial dilution by transfer and mixing of 50 μL from one well to the next. Subsequently, 50 μL of bacterial suspension (10^6 CFU/mL) was added to the wells. The plates were sealed with breathable membranes and incubated at 37° C. for 24 h with constant shaking (600 rpm). Positive growth control consisted of wells with bacterial suspension and without antibiotic. Negative growth control consisted of solely media without bacterial suspension or antibiotic. The MICs were determined from the median of a minimum of triplicates.

S. aureus ATCC29213 = assay: MIC assay; assay type: cell-based, Staphylococcus aureus; conditions: S. aureus ATCC29213 MSSA
Procedure: as §1

[2] = test system: S. aureus HIP12864, NR-46074; assay: MIC assay; assay type: cell-based, Staphylococcus aureus; conditions: S. aureus HIP12864, NR-46074 VISA
Procedure: as §1

[3] = test system: S. aureus LIM-2, NR-25881; assay: MIC assay; assay type: cell-based, Staphylococcus aureus; conditions: S. aureus LIM-2, NR-25881 VISA
Procedure: as §1

[4] = test system: S. aureus NY-155, NR-46236; assay: MIC assay; assay type: cell-based, Staphylococcus aureus; conditions: S. aureus NY-155, NR-46236 MRSA
Procedure: as §1

[5] = test system: S. aureus HIP13419, NR-46413; assay: microbe, parasite or virus in culture; assay type: cell-based, Staphylococcus aureus; conditions: S. aureus HIP13419, NR-46413 VRSA
Procedure: as §1

S. aureus USA300 = assay: microbe, parasite or virus in culture; assay type: cell-based, Staphylococcus aureus
Procedure: as §1

E. faecium E980 = assay: MIC assay; assay type: cell-based, Enterococcus faecium; conditions: E. faecium E980 VSE
Procedure: as §1

E. faecium E155 = assay: microbe, parasite or virus in culture; assay type: cell-based, Enterococcus faecium; conditions: E. faecium E155 VRE (VanA)
Procedure: as §1

E. faecium E7314 = assay: microbe, parasite or virus in culture; assay type: cell-based, Enterococcus faecium; conditions: E. faecium E7314 VRE (VanB)
Procedure: as §1

E. faecalis E1246 = assay: MIC assay; assay type: cell-based, Enterococcus faecalis
Procedure: as §1

E. faecalis E7406 = assay: microbe, parasite or virus in culture; assay type: cell-based, Enterococcus faecalis; conditions: E. faecalis E7406 VRE (VanB)
Procedure: as §1

E. faecalis E7604 = assay: microbe, parasite or virus in culture; assay type: cell-based, Enterococcus faecalis; conditions: E. faecalis E7604 VRE (vanB)
Procedure: as §1

S. pneumoniae 153 = assay: MIC assay; assay type: cell-based; conditions: S. pneumoniae 153; TSB+0.002% p80+5% lysed horse blood
Procedure: as §1

MRSA USA300 = assay: MIC assay in the presence of sheep serum; assay type: cell-based, Staphylococcus aureus; conditions: MRSA USA300, TSB + 0.002% p80 + 50% sheep serum
Procedure: as §1
The activity of the compounds was further assessed against MRSA USA300 strain in the presence of sheep) serum in another MIC assay. The cultures that grew in the presence of serum used TSB+0.002% P80+50% sheep serum as growth media, as opposed to normal MICs done in only TSB+0.002% P80.

[6] = E. faecalis E1246 VRE (VanA), Table 7
[7] = E. faecalis E1246 VRE (vanA), Table 9

CCCCN(CCCC)C(N)=Nc1ccc(CN[C@@]2(C)C[C@H](O[C@H]3[C@H](Oc4c5cc6cc4Oc4ccc(cc4Cl)[C@@H](O)[C@@H](NC(=O)[C@@H](CC(C)C)NC)C(=O)N[C@@H](CC(N)=O)C(=O)N[C@H]6C(=O)N[C@H]4C(=O)N[C@H](C(=O)N[C@H](C(=O)O)c6cc(O)cc(O)c6-c6cc4ccc6O)[C@H](O)c4ccc(c(Cl)c4)O5)O[C@H](CO)[C@@H](O)[C@@H]3O)O[C@@H](C)[C@H]2O)cc1 [Compound 11]
MIC [1]: 64 µg/mL (≈ 37.5 µM)
MIC (S. aureus ATCC29213): 0.125 µg/mL (≈ 0.0732 µM)
MIC [2]: 1 µg/mL (≈ 0.585 µM)
MIC [3]: 0.5 µg/mL (≈ 0.293 µM)
MIC [4]: 0.063 µg/mL (≈ 0.0369 µM)
MIC [5]: 16 µg/mL (≈ 9.36 µM)
MIC (S. aureus USA300; MRSA USA300, TSB + 0.002% p80): 0.125 µg/mL
MIC (S. aureus USA300; S. aureus USA300 MRSA): 0.125 µg/mL (≈ 0.0732 µM)
MIC (E. faecium E980): 0.0625 µg/mL (≈ 0.0366 µM)
MIC (E. faecium E155): 32 µg/mL (≈ 18.7 µM)
MIC (E. faecium E7314): 0.5 µg/mL (≈ 0.293 µM)
MIC (E. faecalis E1246; [6]): >128 µg/mL
MIC (E. faecalis E1246; [7]): >128 µg/mL
MIC (E. faecalis E7406): 8 µg/mL (≈ 4.68 µM)
MIC (E. faecalis E7604): 8 µg/mL (≈ 4.68 µM)
MIC (S. pneumoniae 153): 0.063 µg/mL (≈ 0.0369 µM)
MIC (MRSA USA300): 0.063 µg/mL

CCCCCCCCCCN(CCCCCCCCCC)C(N)=Nc1ccc(CN[C@@]2(C)C[C@H](O[C@H]3[C@H](Oc4c5cc6cc4Oc4ccc(cc4Cl)[C@@H](O)[C@@H](NC(=O)[C@@H](CC(C)C)NC)C(=O)N[C@@H](CC(N)=O)C(=O)N[C@H]6C(=O)N[C@H]4C(=O)N[C@H](C(=O)N[C@H](C(=O)O)c6cc(O)cc(O)c6-c6cc4ccc6O)[C@H](O)c4ccc(c(Cl)c4)O5)O[C@H](CO)[C@@H](O)[C@@H]3O)O[C@@H](C)[C@H]2O)cc1 [Compound 13]
MIC [1]: 8 µg/mL (≈ 4.26 µM)
MIC (S. aureus ATCC29213): 16 µg/mL (≈ 8.52 µM)
MIC [2]: 16 µg/mL (≈ 8.52 µM)
MIC [3]: 32 µg/mL (≈ 17 µM)
MIC [4]: 16 µg/mL (≈ 8.52 µM)
MIC [5]: 8 µg/mL (≈ 4.26 µM)
MIC (S. aureus USA300; MRSA USA300, TSB + 0.002% p80): 16 µg/mL
MIC (S. aureus USA300; S. aureus USA300 MRSA): 16 µg/mL (≈ 8.52 µM)
MIC (E. faecium E980): 4 µg/mL (≈ 2.13 µM)
MIC (E. faecium E155): 8 µg/mL (≈ 4.26 µM)
MIC (E. faecium E7314): 4 µg/mL (≈ 2.13 µM)
MIC (E. faecalis E1246; [6]): 32 µg/mL (≈ 17 µM)
MIC (E. faecalis E1246; [7]): 32 µg/mL (≈ 17 µM)
MIC (E. faecalis E7406): 4 µg/mL (≈ 2.13 µM)
MIC (E. faecalis E7604): 4 µg/mL (≈ 2.13 µM)
MIC (S. pneumoniae 153): 2 µg/mL (≈ 1.07 µM)
MIC (MRSA USA300): 64 µg/mL

CN[C@H](CC(C)C)C(=O)N[C@H]1C(=O)N[C@@H](CC(N)=O)C(=O)N[C@H]2C(=O)N[C@H]3C(=O)N[C@H](C(=O)N[C@H](C(=O)O)c4cc(O)cc(O)c4-c4cc3ccc4O)[C@H](O)c3ccc(c(Cl)c3)Oc3cc2cc(c3O[C@@H]2O[C@H](CO)[C@@H](O)[C@H](O)[C@H]2O[C@H]2C[C@](C)(NCc3ccc(N=C(N)NC/C=C(\C)CC/C=C(\C)CCC=C(C)C)cc3)[C@H](O)[C@H](C)O2)Oc2ccc(cc2Cl)[C@H]1O [Compound 15]
MIC [1]: 0.5 µg/mL (≈ 0.278 µM)
MIC (S. aureus ATCC29213): 0.03125 µg/mL (≈ 0.0174 µM)
MIC [2]: 0.125 µg/mL (≈ 0.0694 µM)
MIC [3]: 0.125 µg/mL (≈ 0.0694 µM)
MIC [4]: 0.125 µg/mL (≈ 0.0694 µM)
MIC [5]: 0.125 µg/mL (≈ 0.0694 µM)
MIC (S. aureus USA300; MRSA USA300, TSB + 0.002% p80): 0.063 µg/mL
MIC (S. aureus USA300; S. aureus USA300 MRSA): 0.0625 µg/mL (≈ 0.0347 µM)
MIC (E. faecium E980): 0.03125 µg/mL (≈ 0.0174 µM)
MIC (E. faecium E155): 0.125 µg/mL (≈ 0.0694 µM)
MIC (E. faecium E7314): 0.01562 µg/mL (≈ 0.00867 µM)
MIC (E. faecalis E1246; [6]): 1 µg/mL (≈ 0.555 µM)
MIC (E. faecalis E1246; [7]): 1 µg/mL (≈ 0.555 µM)
MIC (E. faecalis E7406): 0.03125 µg/mL (≈ 0.0174 µM)
MIC (E. faecalis E7604): 0.031 µg/mL (≈ 0.0172 µM)
MIC (S. pneumoniae 153): ≤0.008 µg/mL
MIC (MRSA USA300): 1 µg/mL

CN[C@H](CC(C)C)C(=O)N[C@H]1C(=O)N[C@@H](CC(N)=O)C(=O)N[C@H]2C(=O)N[C@H]3C(=O)N[C@H](C(=O)N[C@H](C(=O)O)c4cc(O)cc(O)c4-c4cc3ccc4O)[C@H](O)c3ccc(c(Cl)c3)Oc3cc2cc(c3O[C@@H]2O[C@H](CO)[C@@H](O)[C@H](O)[C@H]2O[C@H]2C[C@](C)(NCc3ccc(N=C(N)NC45CC6CC(CC(C6)C4)C5)cc3)[C@H](O)[C@H](C)O2)Oc2ccc(cc2Cl)[C@H]1O [Compound 17]
MIC [1]: 8 µg/mL (≈ 4.62 µM)
MIC (S. aureus ATCC29213): 0.016 µg/mL (≈ 0.00924 µM)
MIC [2]: ≤0.016 µg/mL
MIC [3]: 0.125 µg/mL (≈ 0.0722 µM)
MIC [4]: 0.031 µg/mL (≈ 0.0179 µM)
MIC [5]: 8 µg/mL (≈ 4.62 µM)
MIC (S. aureus USA300; MRSA USA300, TSB + 0.002% p80): 0.031 µg/mL
MIC (S. aureus USA300; S. aureus USA300 MRSA): 0.031 µg/mL (≈ 0.0179 µM)
MIC (E. faecium E980): ≤0.008 µg/mL
MIC (E. faecium E155): 8 µg/mL (≈ 4.62 µM)
MIC (E. faecium E7314): 0.016 µg/mL (≈ 0.00924 µM)
MIC (E. faecalis E1246; [6]): 16 µg/mL (≈ 9.24 µM)
MIC (E. faecalis E1246; [7]): 16 µg/mL (≈ 9.24 µM)
MIC (E. faecalis E7406): 0.125 µg/mL (≈ 0.0722 µM)
MIC (E. faecalis E7604): 0.125 µg/mL (≈ 0.0722 µM)
MIC (S. pneumoniae 153): 0.016 µg/mL (≈ 0.00924 µM)
MIC (MRSA USA300): 0.125 µg/mL
